Results published in patent USRE40086E1, “Method for treating bacterial infection with novel 7-substituted-9-substituted amino 6-demethyl-6-deoxytetracyclines” (Wyeth Holdings Corporation, priority 1991, dated 2008).
Structures can show the parent of a compound that is named as a salt.

Key:
[1] = test system: tetracycline-susceptible E. coli; experiment: Resumption of bacterial growth after washing out the antibiotic (reversibility of binding); assay type: cell-based; conditions: 30 minutes at growth inhibitory concentrations, then centrifugation and fresh medium
Method: The antibiotics are added to exponentially growing cultures of tetracycline-susceptible E. coli at growth inhibitory concentrations. After 30 minutes, excess antibiotic is removed from the bacteria by centrifugation and the organism is resuspended in fresh growth medium. The ability of bacteria to resume growth is monitored. […] This reflects the different binding characteristics of the drugs.

[2] = test system: Ps. acruginosa ATCC 27853; experiment: MIC, agar dilution (Table IA); assay type: cell-based; conditions: unit assumed
[3] = test system: S. mariescens FDOR 8733; experiment: MIC, agar dilution (Table IA); assay type: cell-based; conditions: unit assumed
[4] = test system: E. faecalis 12201; experiment: MIC, agar dilution; assay type: cell-based; conditions: Enterococcus 12201; Table IA; unit assumed
[5] = test system: S. aureus IVES 2943 (meth. resistant); experiment: MIC, agar dilution; assay type: cell-based; conditions: S. aureus IVES 2943; Table IA; unit assumed
[6] = test system: S. aureus UBMS 88-7 (tetK); experiment: MIC, agar dilution; assay type: cell-based; conditions: S. aureus UBMS 88-7 TetK; Table IA; unit assumed
[7] = test system: S. aureus UBMS 90-2 (tetM); experiment: MIC, agar dilution; assay type: cell-based; conditions: S. aureus UBMS 90-2 TetM; Table IA; unit assumed
[8] = test system: E. coli J3272 TetC; experiment: MIC, agar dilution (Table IA); assay type: cell-based; conditions: unit assumed
[9] = test system: S. aureus UBMS 90-1 (tetM); experiment: MIC, agar dilution; assay type: cell-based; conditions: S. aureus UBMS 90-1 TetM; Table IA; unit assumed
[10] = test system: E. coli PRP1 TetA; experiment: MIC, agar dilution (Table IA); assay type: cell-based; conditions: unit assumed
[11] = test system: E. coli UBMS 89-2 (Sensitive); experiment: MIC, agar dilution; assay type: cell-based; conditions: E. coli UBMS 89-2 Tet Sens.; Table IA; unit assumed
[12] = test system: E. coli #311 (MP); experiment: MIC, agar dilution (Table IA); assay type: cell-based; conditions: unit assumed
[13] = test system: S. aureus SMITH (sens); experiment: In vivo antibacterial evaluation, acute lethal infection in mice; conditions: Intraveneous
[14] = test system: S. aureus UBMS 88-5 (tetM); experiment: MIC, agar dilution; assay type: cell-based; conditions: S. aureus UBMS 88-5 TetM; Table IA; unit assumed
[15] = test system: E. coli UBMS 90-5; experiment: MIC, agar dilution (Table IA); assay type: cell-based; conditions: unit assumed
[16] = test system: S. aureus ATCC 29213 (Sensitive); experiment: MIC, agar dilution; assay type: cell-based; conditions: S. aureus ATCC 29213; Table IA; unit assumed
[17] = test system: S. aureus UBMS 90-3 (Sensitive); experiment: MIC, agar dilution; assay type: cell-based; conditions: S. aureus UBMS 90-3; Table IA; unit assumed
[18] = test system: S. aureus ROSE (MP); experiment: MIC, agar dilution (Table IA); assay type: cell-based; conditions: unit assumed
[19] = test system: E. coli MC4100 TetB; experiment: MIC, agar dilution (Table IA); assay type: cell-based; conditions: unit assumed
[20] = test system: S. aureus Smith (Sensitive); experiment: MIC, agar dilution; assay type: cell-based; conditions: S. aureus SMITH (MP); Table IA; unit assumed
[21] = test system: E. coli UBMS 88-1 (tetB); experiment: MIC, agar dilution; assay type: cell-based; conditions: E. coli UBMS 88-1 TetB; Table IA; unit assumed
[22] = test system: E. coli J2175; experiment: MIC, agar dilution (Table IA); assay type: cell-based; conditions: unit assumed
[23] = test system: E. coli ATCC 25922; experiment: MIC, agar dilution; assay type: cell-based; conditions: E. coli ATCC 25922; Table IA; unit assumed
[24] = test system: E. coli MC4100 Tet sens.; experiment: MIC, agar dilution (Table IA); assay type: cell-based; conditions: unit assumed
[25] = test system: S. aureus IVES 1983 (meth. resistant); experiment: MIC, agar dilution; assay type: cell-based; conditions: S. aureus IVES 1983; Table IA; unit assumed
[26] = test system: E. coli UBMS 90-4 (tetM); experiment: MIC, agar dilution; assay type: cell-based; conditions: E. coli UBMS 90-4 TetM; Table IA; unit assumed
[27] = test system: X. maltophilia NEMC 87210; experiment: MIC, agar dilution (Table IA); assay type: cell-based; conditions: unit assumed
[28] = test system: E. coli UBMS 89-1 (tetM); experiment: MIC, agar dilution; assay type: cell-based; conditions: E. coli UBMS 89-1 TetM; Table IA; unit assumed
[29] = test system: S. aureus SMITH (sens); experiment: In vivo antibacterial evaluation, acute lethal infection in mice; conditions: Oral
Excerpt: In Vivo Antibacterial Evaluation (Table VII)

[30] = test system: S. haemolyticus AVAH 88-3; experiment: MIC, agar dilution; assay type: cell-based; conditions: S. hemolyticus AVHAH 88-3; Table IA; unit assumed
[31] = test system: E. coli J3272 TetD; experiment: MIC, agar dilution (Table IA); assay type: cell-based; conditions: unit assumed
[32] = test system: E. faecalis ATCC 29212; experiment: MIC, agar dilution; assay type: cell-based; conditions: E. faecalis ATCC 29212; Table IA; unit assumed
[33] = test system: S. aureus UBMS 88-4 (Sensitive); experiment: MIC, agar dilution; assay type: cell-based; conditions: S. aureus UBMS 88-4; Table IA; unit assumed
[34] = test system: S. aureus NEMC 8769/89-4; experiment: MIC, agar dilution (Table IA); assay type: cell-based; conditions: unit assumed
[35] = test system: E. coli BAJ9003; experiment: MIC, agar dilution (Table IA); assay type: cell-based; conditions: unit assumed
[36] = test system: Wild Type S30 extract, E. coli strain MRE600 (tetracycline sensitive); experiment: E. coli in vitro transcription and protein translation, 35S-methionine incorporation (Table VIII)
[37] = test system: E. coli J3272 Tet sens.; experiment: MIC, agar dilution (Table IA); assay type: cell-based; conditions: unit assumed
[38] = test system: TetM S30 extract, derivative of E. coli MRE600 containing the tetM determinant; experiment: E. coli in vitro transcription and protein translation, 35S-methionine incorporation (Table VIII)

| Compound | Antibacterial activity (MIC) [2] | Antibacterial activity (MIC) [3] | Antibacterial activity (MIC) [4] | Antibacterial activity (MIC) [5] | Antibacterial activity (MIC) [6] | Antibacterial activity (MIC) [7] | Antibacterial activity (MIC) [8] | Antibacterial activity (MIC) [9] | Antibacterial activity (MIC) [10] | Antibacterial activity (MIC) [11] | Antibacterial activity (MIC) [12] | ED50 [13] | Antibacterial activity (MIC) [14] | Antibacterial activity (MIC) [15] | Antibacterial activity (MIC) [16] | Antibacterial activity (MIC) [17] | Antibacterial activity (MIC) [18] | Antibacterial activity (MIC) [19] | Antibacterial activity (MIC) [20] | Antibacterial activity (MIC) [21] | further results |
| --- | --- | --- | --- | --- | --- | --- | --- | --- | --- | --- | --- | --- | --- | --- | --- | --- | --- | --- | --- | --- | --- |
| CN(C)c1cc(NC=O)c(O)c2c1CC1CC3C(N(C)C)C(O)=C(C(N)=O)C(=O)C3(O)C(O)=C1C2=O (centres unmarked) |  |  |  |  |  |  |  |  |  |  |  |  |  |  |  |  |  |  |  |  | ability of bacteria to resume growth after excess antibiotic is removed by washing [1]: bacterial growth resumed when the compound was removed |
| CCCCCCNCC(=O)Nc1cc(N(C)C)c2c(c1O)C(=O)C1=C(O)[C@]3(O)C(=O)C(C(N)=O)=C(O)[C@@H](N(C)C)C3CC1C2 (stereo partly drawn) [BBB, [4S-(4alpha,12aalpha)]-4,7-Bis(dimethylamino)-9-[[(hexylamino)acetyl]amino]-1,4,4a,5,5a,6,11,12a-octahydro-3,10,12,12a-tetrahydroxy-1,11-dioxo-2-naphthacenecarboxamide dihydrochloride] | 16 mg/L | 4 mg/L | 0.25 mg/L | 4 mg/L | 2 mg/L | 0.25 mg/L | 0.5 mg/L | 0.25 mg/L | 0.5 mg/L | 0.25 mg/L | 0.5 mg/L | 1.8 mg/kg | 0.5 mg/L | 0.25 mg/L | 0.25 mg/L | 0.06 mg/L | 16 mg/L | 0.5 mg/L | 0.12 mg/L | 0.5 mg/L | Antibacterial activity (MIC) [22]: 0.25 mg/L; Antibacterial activity (MIC) [23]: 0.12 mg/L; Antibacterial activity (MIC) [24]: 0.25 mg/L; Antibacterial activity (MIC) [25]: 4 mg/L; Antibacterial activity (MIC) [26]: 0.25 mg/L; Antibacterial activity (MIC) [27]: 4 mg/L; Antibacterial activity (MIC) [28]: 0.25 mg/L; ED50 [29]: 4 to 8 mg/kg; Antibacterial activity (MIC) [30]: 0.5 mg/L; Antibacterial activity (MIC) [31]: 0.12 mg/L; Antibacterial activity (MIC) [32]: 0.12 mg/L; Antibacterial activity (MIC) [33]: 0.25 mg/L; Antibacterial activity (MIC) [34]: 0.06 mg/L; Antibacterial activity (MIC) [35]: 0.06 mg/L |
| CCCNCC(=O)Nc1cc(N(C)C)c2c(c1O)C(=O)C1=C(O)C3(O)C(=O)C(C(N)=O)=C(O)C(N(C)C)C3CC1C2.Cl.Cl (stereo not drawn) [WW, [4S-(4alpha,12aalpha)]-4,7-bis(dimethylamino)-1,4,4a,5,5a,6,11,12a-octahydro-3,10,12,12a-tetra-hydroxy-1,11-dioxo-9-[[(propylamino)acetyl]amino]-2-naphthacenecarboxamide dihydrochloride] | 8 mg/L | 2 mg/L | 0.12 mg/L | 2 mg/L | 1 mg/L | 0.25 mg/L | 0.25 mg/L | 0.12 mg/L | 1 mg/L | 0.25 mg/L | 0.25 mg/L | 0.82 mg/kg | 0.25 mg/L | 0.25 mg/L | 0.25 mg/L | 0.12 mg/L | 2 mg/L | 0.25 mg/L | 0.12 mg/L | 0.25 mg/L | % INHIBITION Wild Type S30 ([36]; 0.06 mg/ml): 93%; % INHIBITION Wild Type S30 ([36]; 0.2 mg/ml): 99%; % INHIBITION Wild Type S30 ([36]; 1.0 mg/ml): 99%; Antibacterial activity (MIC) [37]: 0.25 mg/L; Antibacterial activity (MIC) [22]: 0.25 mg/L; Antibacterial activity (MIC) [23]: 0.25 mg/L; Antibacterial activity (MIC) [25]: 2 mg/L; Antibacterial activity (MIC) [26]: 0.25 mg/L; % INHIBITION TetM S30 ([38]; 0.06 mg/ml): 88%; % INHIBITION TetM S30 ([38]; 0.2 mg/ml): 97%; % INHIBITION TetM S30 ([38]; 1.0 mg/ml): 98%; Antibacterial activity (MIC) [27]: 0.5 mg/L; Antibacterial activity (MIC) [28]: 0.25 mg/L; ED50 [29]: >16 mg/kg; Antibacterial activity (MIC) [30]: 0.25 mg/L; Antibacterial activity (MIC) [31]: 0.12 mg/L; Antibacterial activity (MIC) [32]: 0.25 mg/L; Antibacterial activity (MIC) [33]: 0.25 mg/L; Antibacterial activity (MIC) [34]: 0.06 mg/L; Antibacterial activity (MIC) [35]: 0.06 mg/L |
| CC(C(=O)Nc1cc(N(C)C)c2c(c1O)C(=O)C1=C(O)[C@]3(O)C(=O)C(C(N)=O)=C(O)[C@@H](N(C)C)C3CC1C2)N(C)C.Cl.Cl (some centres unmarked) [XX] | 32 mg/L | 4 mg/L | 0.12 mg/L | 1 mg/L | 1 mg/L | 0.25 mg/L | 1 mg/L | 0.25 mg/L | 1 mg/L | 0.5 mg/L | 0.5 mg/L | 0.5 to 1 mg/kg | 0.25 mg/L | 0.5 mg/L | 0.25 mg/L | 0.25 mg/L | 1 mg/L | 1 mg/L | 0.25 mg/L | 0.5 mg/L | % INHIBITION Wild Type S30 ([36]; 0.06 mg/ml): 85%; % INHIBITION Wild Type S30 ([36]; 0.2 mg/ml): 96%; % INHIBITION Wild Type S30 ([36]; 1.0 mg/ml): 98%; Antibacterial activity (MIC) [37]: 0.5 mg/L; Antibacterial activity (MIC) [22]: 0.5 mg/L; Antibacterial activity (MIC) [23]: 0.5 mg/L; Antibacterial activity (MIC) [25]: 1 mg/L; Antibacterial activity (MIC) [26]: 0.5 mg/L; % INHIBITION TetM S30 ([38]; 0.06 mg/ml): 78%; % INHIBITION TetM S30 ([38]; 0.2 mg/ml): 89%; % INHIBITION TetM S30 ([38]; 1.0 mg/ml): 97%; Antibacterial activity (MIC) [27]: 0.5 mg/L; Antibacterial activity (MIC) [28]: 0.12 mg/L; ED50 [29]: 8 to 16 mg/kg; Antibacterial activity (MIC) [30]: 0.5 mg/L; Antibacterial activity (MIC) [31]: 0.25 mg/L; Antibacterial activity (MIC) [32]: 0.12 mg/L; Antibacterial activity (MIC) [33]: 0.25 mg/L; Antibacterial activity (MIC) [34]: 0.12 mg/L; Antibacterial activity (MIC) [35]: 0.06 mg/L |
| polymyxin [reference compound] |  |  |  |  |  |  |  |  |  |  |  |  |  |  |  |  |  |  |  |  | ability of bacteria to resume growth after excess antibiotic is removed by washing [1]: continues to prevent bacterial growth even when excess antibiotic is removed |
